Laboratory results from the kinase profiling compilation of Christmann-Franck et al. (2016).

Tests used:
Test in all cases: KINOMEscan competition binding
Settings in all cases: compound 10.0 µM
[1] = molecular target: DCLK2 (human) (UniProt Q8N568)
[2] = molecular target: JAK1 JH1 catalytic (human) (UniProt P23458)
[3] = molecular target: PDGFRB (human) (UniProt P09619)
[4] = molecular target: ACVRL1 (human) (UniProt P37023)
[5] = molecular target: RIOK3 (human) (UniProt O14730)
[6] = molecular target: BRSK1 (human) (UniProt Q8TDC3)
[7] = molecular target: CAMK2A (human) (UniProt Q9UQM7)
Chain of CAMK2A (human) (Q9UQM7 whole entry, looked up): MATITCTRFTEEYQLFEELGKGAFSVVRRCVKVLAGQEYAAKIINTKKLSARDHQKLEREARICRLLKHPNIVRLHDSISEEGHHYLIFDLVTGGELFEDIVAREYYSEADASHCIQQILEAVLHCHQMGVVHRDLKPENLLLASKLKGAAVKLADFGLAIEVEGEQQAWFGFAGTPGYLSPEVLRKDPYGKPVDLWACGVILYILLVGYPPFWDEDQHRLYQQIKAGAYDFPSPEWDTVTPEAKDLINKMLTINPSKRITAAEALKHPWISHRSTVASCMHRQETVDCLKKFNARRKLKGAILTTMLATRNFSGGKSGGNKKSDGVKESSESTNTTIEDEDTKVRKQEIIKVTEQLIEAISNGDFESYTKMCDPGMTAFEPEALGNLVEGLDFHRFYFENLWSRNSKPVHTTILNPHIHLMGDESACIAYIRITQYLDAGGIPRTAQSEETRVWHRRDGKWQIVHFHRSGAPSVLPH

[8] = molecular target: RPS6KA1 KD2 (human) (UniProt Q15418)
[9] = molecular target: MAP3K11 (human) (UniProt Q16584)
[10] = molecular target: MAP2K2 (human) (UniProt P36507)
[11] = molecular target: CDC42BPG (human) (UniProt Q6DT37)
Chain of CDC42BPG (human) (Q6DT37 whole entry, looked up): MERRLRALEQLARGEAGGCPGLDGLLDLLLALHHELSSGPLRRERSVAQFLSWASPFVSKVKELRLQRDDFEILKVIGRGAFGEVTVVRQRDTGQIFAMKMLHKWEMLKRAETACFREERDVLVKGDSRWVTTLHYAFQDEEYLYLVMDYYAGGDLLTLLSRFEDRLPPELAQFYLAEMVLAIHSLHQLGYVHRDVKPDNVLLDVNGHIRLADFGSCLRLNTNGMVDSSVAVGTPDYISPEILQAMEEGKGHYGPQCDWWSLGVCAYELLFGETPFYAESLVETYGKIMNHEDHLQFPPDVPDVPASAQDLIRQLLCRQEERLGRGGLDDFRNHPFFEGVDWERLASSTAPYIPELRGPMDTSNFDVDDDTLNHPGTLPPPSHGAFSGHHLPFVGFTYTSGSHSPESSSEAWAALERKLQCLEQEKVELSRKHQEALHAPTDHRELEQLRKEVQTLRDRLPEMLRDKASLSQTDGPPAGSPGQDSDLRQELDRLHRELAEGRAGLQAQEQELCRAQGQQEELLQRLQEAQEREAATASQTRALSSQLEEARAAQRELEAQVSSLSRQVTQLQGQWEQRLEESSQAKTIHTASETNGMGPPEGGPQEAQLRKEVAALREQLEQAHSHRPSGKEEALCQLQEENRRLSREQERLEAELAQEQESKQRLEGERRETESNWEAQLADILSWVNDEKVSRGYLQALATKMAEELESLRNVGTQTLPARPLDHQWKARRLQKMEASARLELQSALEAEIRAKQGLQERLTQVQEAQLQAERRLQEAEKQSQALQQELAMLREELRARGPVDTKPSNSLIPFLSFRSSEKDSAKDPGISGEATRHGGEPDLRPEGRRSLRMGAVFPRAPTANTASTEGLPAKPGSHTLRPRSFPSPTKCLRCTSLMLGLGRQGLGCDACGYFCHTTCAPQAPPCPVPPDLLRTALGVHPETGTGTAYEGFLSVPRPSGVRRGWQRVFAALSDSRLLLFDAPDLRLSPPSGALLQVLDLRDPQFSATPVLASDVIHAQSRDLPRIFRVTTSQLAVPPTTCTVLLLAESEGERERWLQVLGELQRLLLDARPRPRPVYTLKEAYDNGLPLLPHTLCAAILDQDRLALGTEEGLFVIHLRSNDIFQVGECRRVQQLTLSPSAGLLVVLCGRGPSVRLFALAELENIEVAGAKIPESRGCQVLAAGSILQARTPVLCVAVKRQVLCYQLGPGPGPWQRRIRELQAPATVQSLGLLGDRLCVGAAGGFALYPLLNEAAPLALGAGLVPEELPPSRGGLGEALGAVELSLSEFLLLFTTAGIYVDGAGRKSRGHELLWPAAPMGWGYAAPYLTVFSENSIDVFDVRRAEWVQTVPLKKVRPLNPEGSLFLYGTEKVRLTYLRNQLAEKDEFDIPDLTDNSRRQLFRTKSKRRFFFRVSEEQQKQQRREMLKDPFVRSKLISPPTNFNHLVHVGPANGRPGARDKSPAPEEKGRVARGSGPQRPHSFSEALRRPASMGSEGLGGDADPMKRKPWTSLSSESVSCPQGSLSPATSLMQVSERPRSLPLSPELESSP

[12] = molecular target: PRKACA (human) (UniProt P17612)
[13] = molecular target: TNK2 (human) (UniProt Q07912)
[14] = molecular target: STK33 (human) (UniProt Q9BYT3)
[15] = molecular target: CDK15 (human) (UniProt Q96Q40)
Chain of CDK15 (human) (Q96Q40 whole entry, looked up): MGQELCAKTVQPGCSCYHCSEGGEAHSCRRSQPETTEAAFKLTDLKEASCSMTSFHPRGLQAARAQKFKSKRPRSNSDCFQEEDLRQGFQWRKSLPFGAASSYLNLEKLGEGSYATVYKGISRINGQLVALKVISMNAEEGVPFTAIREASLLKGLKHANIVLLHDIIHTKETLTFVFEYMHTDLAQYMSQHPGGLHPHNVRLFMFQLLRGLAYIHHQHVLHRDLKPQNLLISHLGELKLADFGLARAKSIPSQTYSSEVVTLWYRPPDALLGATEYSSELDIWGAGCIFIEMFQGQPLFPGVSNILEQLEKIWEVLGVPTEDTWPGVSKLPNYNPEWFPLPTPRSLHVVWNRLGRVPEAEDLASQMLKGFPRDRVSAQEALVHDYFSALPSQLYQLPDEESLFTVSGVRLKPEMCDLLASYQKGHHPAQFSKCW

[16] = molecular target: CDK7 (human) (UniProt P50613)
[17] = molecular target: TAOK3 (human) (UniProt Q9H2K8)
[18] = molecular target: STK11 (human) (UniProt Q15831)
[19] = molecular target: MAPK4 (human) (UniProt P31152)
[20] = molecular target: FYN (human) (UniProt P06241)
[21] = molecular target: CSNK1G1 (human) (UniProt Q9HCP0)
[22] = molecular target: MAPK9 (human) (UniProt P45984)
Chain of MAPK9 (human) (P45984 whole entry, looked up): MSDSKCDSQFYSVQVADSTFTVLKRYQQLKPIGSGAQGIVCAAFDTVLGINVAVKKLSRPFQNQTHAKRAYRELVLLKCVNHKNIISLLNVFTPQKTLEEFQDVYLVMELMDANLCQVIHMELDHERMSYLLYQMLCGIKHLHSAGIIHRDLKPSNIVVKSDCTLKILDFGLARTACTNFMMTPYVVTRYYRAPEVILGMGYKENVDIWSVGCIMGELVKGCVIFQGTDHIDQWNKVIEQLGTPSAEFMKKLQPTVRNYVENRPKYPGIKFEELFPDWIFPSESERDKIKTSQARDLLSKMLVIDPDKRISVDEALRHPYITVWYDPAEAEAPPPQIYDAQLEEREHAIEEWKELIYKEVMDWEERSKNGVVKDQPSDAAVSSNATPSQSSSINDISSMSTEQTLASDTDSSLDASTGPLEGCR

[23] = molecular target: PLK1 (human) (UniProt P53350)
[24] = molecular target: IKBKB (human) (UniProt O14920)
[25] = molecular target: TTK (human) (UniProt P33981)
[26] = molecular target: NTRK2 (human) (UniProt Q16620)
[27] = molecular target: EPHB2 (human) (UniProt P29323)
[28] = molecular target: TYK2 JH1 catalytic (human) (UniProt P29597)
[29] = molecular target: CDK18 (human) (UniProt Q07002)
[30] = molecular target: SGK110 (human) (UniProt P0C264)
[31] = molecular target: MYLK2 (human) (UniProt Q9H1R3)
[32] = molecular target: RPS6KA2 KD1 (human) (UniProt Q15349)
[33] = molecular target: MKNK1 (human) (UniProt Q9BUB5)
[34] = molecular target: SRPK1 (human) (UniProt Q96SB4)
[35] = molecular target: CHUK (human) (UniProt O15111)
[36] = molecular target: MAPKAPK2 (human) (UniProt P49137)
Chain of MAPKAPK2 (human) (P49137 whole entry, looked up): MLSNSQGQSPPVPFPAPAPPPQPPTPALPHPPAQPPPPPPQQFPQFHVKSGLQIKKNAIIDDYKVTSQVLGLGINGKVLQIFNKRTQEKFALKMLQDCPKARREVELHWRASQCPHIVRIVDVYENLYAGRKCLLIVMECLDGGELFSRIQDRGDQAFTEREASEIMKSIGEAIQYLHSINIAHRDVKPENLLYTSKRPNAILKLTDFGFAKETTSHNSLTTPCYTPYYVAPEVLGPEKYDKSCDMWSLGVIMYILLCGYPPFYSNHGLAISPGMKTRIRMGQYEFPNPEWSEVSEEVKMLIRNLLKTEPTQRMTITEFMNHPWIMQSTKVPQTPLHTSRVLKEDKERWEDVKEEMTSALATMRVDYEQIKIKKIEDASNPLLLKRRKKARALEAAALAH

[37] = molecular target: WEE1 (human) (UniProt P30291)
Chain of WEE1 (human) (P30291 whole entry, looked up): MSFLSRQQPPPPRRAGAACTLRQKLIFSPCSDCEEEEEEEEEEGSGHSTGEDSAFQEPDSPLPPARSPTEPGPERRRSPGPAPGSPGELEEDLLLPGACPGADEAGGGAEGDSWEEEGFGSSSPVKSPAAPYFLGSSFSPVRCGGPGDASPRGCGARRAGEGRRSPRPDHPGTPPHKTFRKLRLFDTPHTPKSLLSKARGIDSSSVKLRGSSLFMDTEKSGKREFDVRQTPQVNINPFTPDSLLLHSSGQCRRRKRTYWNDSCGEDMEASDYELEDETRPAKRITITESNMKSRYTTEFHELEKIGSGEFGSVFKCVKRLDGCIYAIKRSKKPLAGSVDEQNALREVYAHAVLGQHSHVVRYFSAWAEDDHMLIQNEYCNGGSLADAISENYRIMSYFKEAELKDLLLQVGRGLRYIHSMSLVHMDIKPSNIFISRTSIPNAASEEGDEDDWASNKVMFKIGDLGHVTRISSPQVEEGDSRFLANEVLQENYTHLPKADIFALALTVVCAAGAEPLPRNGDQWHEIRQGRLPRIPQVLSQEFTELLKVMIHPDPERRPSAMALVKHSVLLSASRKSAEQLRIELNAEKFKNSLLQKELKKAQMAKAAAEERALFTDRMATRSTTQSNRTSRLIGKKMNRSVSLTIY

[38] = molecular target: MAP3K10 (human) (UniProt Q02779)
[39] = molecular target: STK17A (human) (UniProt Q9UEE5)
[40] = molecular target: PRKD2 (human) (UniProt Q9BZL6)
Chain of PRKD2 (human) (Q9BZL6 whole entry, looked up): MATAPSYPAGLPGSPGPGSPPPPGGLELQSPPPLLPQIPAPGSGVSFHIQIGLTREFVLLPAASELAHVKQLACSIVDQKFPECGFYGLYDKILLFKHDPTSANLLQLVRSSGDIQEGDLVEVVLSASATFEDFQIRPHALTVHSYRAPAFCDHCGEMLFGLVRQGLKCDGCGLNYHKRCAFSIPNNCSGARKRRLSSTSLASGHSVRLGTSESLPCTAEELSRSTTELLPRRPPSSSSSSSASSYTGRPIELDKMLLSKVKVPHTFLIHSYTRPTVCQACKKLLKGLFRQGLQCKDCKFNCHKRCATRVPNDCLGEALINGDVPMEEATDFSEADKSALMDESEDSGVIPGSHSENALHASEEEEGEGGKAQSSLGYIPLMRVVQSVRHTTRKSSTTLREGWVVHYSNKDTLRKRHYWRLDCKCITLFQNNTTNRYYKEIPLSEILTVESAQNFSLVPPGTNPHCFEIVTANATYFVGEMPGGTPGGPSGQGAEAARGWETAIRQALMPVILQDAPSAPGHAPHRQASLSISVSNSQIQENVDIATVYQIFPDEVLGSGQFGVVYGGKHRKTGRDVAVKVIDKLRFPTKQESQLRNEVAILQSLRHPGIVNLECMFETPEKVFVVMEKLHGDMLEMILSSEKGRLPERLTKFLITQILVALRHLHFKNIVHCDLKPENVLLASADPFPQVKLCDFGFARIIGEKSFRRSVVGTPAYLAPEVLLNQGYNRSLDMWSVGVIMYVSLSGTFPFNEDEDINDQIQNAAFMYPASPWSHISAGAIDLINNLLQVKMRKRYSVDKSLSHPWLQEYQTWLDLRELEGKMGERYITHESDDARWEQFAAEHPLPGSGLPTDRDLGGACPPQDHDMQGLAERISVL

Row | SMILES | kinase still bound, per cent of control [1] | kinase still bound, per cent of control [2] | kinase still bound, per cent of control [3] | kinase still bound, per cent of control [4] | kinase still bound, per cent of control [5] | kinase still bound, per cent of control [6] | kinase still bound, per cent of control [7] | kinase still bound, per cent of control [8] | kinase still bound, per cent of control [9] | kinase still bound, per cent of control [10] | kinase still bound, per cent of control [11] | kinase still bound, per cent of control [12] | kinase still bound, per cent of control [13] | kinase still bound, per cent of control [14] | kinase still bound, per cent of control [15] | kinase still bound, per cent of control [16] | kinase still bound, per cent of control [17] | kinase still bound, per cent of control [18] | kinase still bound, per cent of control [19] | kinase still bound, per cent of control [20] | further results
1 | C=CC(=O)Nc1cccc(Nc2nc(N[C@H]3CC[C@H](N(C)C)CC3)nc3c2ncn3C(C)C)c1 | 89% | 88% | 8.4% | 100% | 34% | 88% | 34% | 67% | 24% | 100% | 84% | 100% | 46% | 15% | 100% | 15% | 28% | 66% | 100% | 23% | kinase still bound, per cent of control [21]: 28%; kinase still bound, per cent of control [22]: 100%; kinase still bound, per cent of control [23]: 21%; kinase still bound, per cent of control [24]: 76%; kinase still bound, per cent of control [25]: 51%; kinase still bound, per cent of control [26]: 5.3%; kinase still bound, per cent of control [27]: 87%; kinase still bound, per cent of control [28]: 34%; kinase still bound, per cent of control [29]: 77%; kinase still bound, per cent of control [30]: 88%; kinase still bound, per cent of control [31]: 90%; kinase still bound, per cent of control [32]: 4.4%; kinase still bound, per cent of control [33]: 32%; kinase still bound, per cent of control [34]: 52%; kinase still bound, per cent of control [35]: 82%; kinase still bound, per cent of control [36]: 100%; kinase still bound, per cent of control [37]: 51%; kinase still bound, per cent of control [38]: 84%; kinase still bound, per cent of control [39]: 100%; kinase still bound, per cent of control [40]: 100%
2 | Nc1ccc(-c2ccc3ncc4ccc(=O)n(-c5cccc(C(F)(F)F)c5)c4c3c2)cn1 | 98% | 92% | 34% | 59% | 100% | 88% | 83% | 100% | 96% | 100% | 86% | 100% | 100% | 100% | 94% | 51% | 80% | 98% | 75% | 92% | kinase still bound, per cent of control [21]: 100%; kinase still bound, per cent of control [22]: 89%; kinase still bound, per cent of control [23]: 94%; kinase still bound, per cent of control [24]: 89%; kinase still bound, per cent of control [25]: 42%; kinase still bound, per cent of control [26]: 72%; kinase still bound, per cent of control [27]: 98%; kinase still bound, per cent of control [28]: 85%; kinase still bound, per cent of control [29]: 100%; kinase still bound, per cent of control [30]: 100%; kinase still bound, per cent of control [31]: 100%; kinase still bound, per cent of control [32]: 100%; kinase still bound, per cent of control [33]: 43%; kinase still bound, per cent of control [34]: 100%; kinase still bound, per cent of control [35]: 55%; kinase still bound, per cent of control [36]: 100%; kinase still bound, per cent of control [37]: 100%; kinase still bound, per cent of control [38]: 100%; kinase still bound, per cent of control [39]: 100%; kinase still bound, per cent of control [40]: 100%
